Measured values as given in patent publication US12441734B2, “Ferroptosis inhibitor and use therefor” (JICHI MEDICAL UNIVERSITY, priority 2021, dated 2025).
pEC50: −log10 of the molar value.

What was measured:
[1] = target: dopamine D2 receptor (Homo sapiens (Human), UniProt P14416); assay: Test IV: dopamine D2 receptor binding activity (GeneBLAzer D2-Gqo5-NEAT-bla CHO-K1 Cell-based Assay); details: for Dopamine D2 receptor binding activity, Activity intensity: CHO-K1 reporter cells, 5 hours
Experimental: In this test, the dopamine D2 receptor binding activity of each test compound was measured using GeneBLAzer D2-Gqo5-NEAT-bla CHO-K1 Cell-based Assay (Thermo Fisher Scientific, Inc.). The CHO cells are designed such that a signal transduction pathway is activated by addition of a drug to express a reporter gene (P lactamase). […] Therefore, the binding activity of the test compound can be measured by measuring a blue fluorescence/green fluorescence ratio. The CHO cells were inoculated at 10,000 cells/well to a 384-well plate and cultured for 16 to 20 hours in a CO2 incubator. […] A substrate mix was added to the cells and incubated at room temperature for 2 hours. […] The respective EC50 values of the test compounds were determined from the measured fluorescence ratios using GraphPad Prism 8.

[2] = system: Leigh syndrome patient cells (KCMC10); assay: Test III: suppression of RSL-3-induced ferroptosis, Leigh syndrome patient cells; assay type: cell-based, human; details: 100 nM RSL-3 coadded with test compound; FIG. 34
Description: (§1) Apomorphine and idebenone approved as a therapeutic drug for Leber's hereditary optic neuropathy in the Europe were used as control drugs.
(§2) In the drawing, A depicts the results obtained using compounds D8, D9, D10, D18, D20, D26, and D36, and B depicts the results obtained using compounds D37, D38, D39, D40, D41, D42, and D43. In the drawing, the abscissa depicts test compounds, and the ordinate depicts the cell viability (%) of each treated plot when the number of live cells in a control non-supplemented with RSL-3 is defined as 100%.

[3] = system: MELAS patient cells (ME169); assay: Test III: suppression of RSL-3-induced ferroptosis, MELAS patient cells; assay type: cell-based, human; details: 100 nM RSL-3 coadded with test compound; FIG. 35
Description: as §1, §2

[4] = system: Leigh syndrome patient cells (KCMC10); assay: Test III: suppression of BSO-induced ferroptosis, Leigh syndrome patient cells; assay type: cell-based, human; details: for cell death ascribable to ferroptosis induced by BSO: 100 μM BSO coadded with test compound, FIG. 32; for pEC50: Homo sapiens, read-out: EC50 (50% effective concentration of the suppressive effect on cell death ascribable to ferroptosis induced by BSO); for pEC50 / ferroptosis inhibitory effect (judged from EC50 value): Leigh syndrome patient cells (KCMC10), BSO; for ferroptosis inhibitory effect (judged from EC50 value): Table 3
Description: as §1
(§3) In the drawing, A depicts the results obtained using compounds D8, D9, D10, D18, D20, D26, and D36, and B depicts the results obtained using compounds D37, D38, D39, D40, D41, D42, and D43. In the drawing, the abscissa depicts test compounds, and the ordinate depicts the cell viability (%) of each treated plot when the number of live cells in a control non-supplemented with BSO is defined as 100%.

[5] = system: MELAS patient cells (ME169); assay: Test III: suppression of BSO-induced ferroptosis, MELAS patient cells; assay type: cell-based, human; details: 80 μM BSO coadded with test compound; FIG. 33
Description: as §1, §3

[6] = system: SH-SY5Y cells; assay: Test VI: inhibition of rotenone-induced neuronal death (LDH assay); assay type: cell-based, human; set-up: key: ++: the case where a concentration-dependent inhibitory effect on rotenone-induced cell death was able to be confirmed twice; +: In the third test, the case where the concentration-dependent inhibitory effect was able to be confirmed; ±: the case where no concentration-dependent inhibitory effect was able to be confirmed; −: The case where any inhibitory effect on rotenone-induced cell death was able to be confirmed in none of the two tests; details: rotenone 1 μM, compound 10 nM-10 μM (Apo 0.1 nM-10 μM), 48 hours
Experimental: After the completion of culture, rotenone-induced cell death was measured using Cytotoxicity LDH Assay Kit-WST (Dojindo Laboratories). […] The test was conducted twice, and the case where a concentration-dependent inhibitory effect on rotenone-induced cell death was able to be confirmed twice was rated as (++). If the inhibitory effect was confirmed in one of the two tests and no inhibitory effect was confirmed in the other test, the third test was conducted. In the third test, the case where the concentration-dependent inhibitory effect was able to be confirmed was rated as (+), and the case where no concentration-dependent inhibitory effect was able to be confirmed was rated as (±). The case where any inhibitory effect on rotenone-induced cell death was able to be confirmed in none of the two tests was rated as (−).

[7] = system: human liver cancer cell line (Huh7); assay: Test V: suppression of RSL-3-induced cell death in liver cancer cell system (LDH, MTT); assay type: cell-based; set-up: key to LDH (LDH activity, cell death): relative to control without RSL-3 (= 1); details: Huh7, test compound 1 μM (GSK872 5 μM) 1 hour, then RSL-3 0.5 μM 24 hours, relative value, control non-supplemented with RSL-3 = 1; for viability at 1 µM: Homo sapiens, Huh-7, read-out: MTT (cell proliferation and cell viability)
Experimental: The ferroptosis inducer used was RSL-3.
At the stage where 70% confluency was attained, the medium was replaced with the medium for the test, and DMSO or each test compound (final concentration of GSK872: 5 μM, and final concentration of the other compounds: 1 μM) was added to the cells in each well, which were then cultured for 1 hour. Then, the ferroptosis inducer (final concentration: 0.5 μM) was added to the cells in each well, which were then cultured for 24 hours. After the completion of culture, cell death suppressive activity was measured with lactate dehydrogenase (LDH) activity as an index while cell proliferation and cell viability were measured with activity of reducing yellow tetrazolium salt (MTT) into formazan as an index.
The values in the table are relative values when the LDH activity and MTT value of a control non-supplemented with RSL-3 are each defined as 1.

dopamine D2 receptor, sequence (P14416 whole entry): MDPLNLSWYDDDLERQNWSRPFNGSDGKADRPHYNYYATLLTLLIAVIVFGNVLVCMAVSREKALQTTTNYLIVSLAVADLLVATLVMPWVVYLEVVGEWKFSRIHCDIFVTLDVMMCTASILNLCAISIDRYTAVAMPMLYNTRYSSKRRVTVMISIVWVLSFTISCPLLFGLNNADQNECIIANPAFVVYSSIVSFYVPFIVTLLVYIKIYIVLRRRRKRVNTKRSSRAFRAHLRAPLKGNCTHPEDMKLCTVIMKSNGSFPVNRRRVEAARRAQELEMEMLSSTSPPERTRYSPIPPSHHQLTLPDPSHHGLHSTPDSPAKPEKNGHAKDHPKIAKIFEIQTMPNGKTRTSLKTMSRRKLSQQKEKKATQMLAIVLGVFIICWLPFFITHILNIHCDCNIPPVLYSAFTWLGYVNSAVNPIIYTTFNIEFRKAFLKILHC

SMILES	dopamine D2 receptor binding activity (in words) [1]	Dopamine D2 receptor binding activity, Activity intensity [1]	cell death ascribable to ferroptosis induced by RSL-3 [2]	cell death ascribable to ferroptosis induced by RSL-3 [3]	cell death ascribable to ferroptosis induced by BSO [4]	pEC50 [4]	cell death ascribable to ferroptosis induced by BSO [5]	Inhibitory effect on rotenone-induced cell death [6]	ferroptosis inhibitory effect (judged from EC50 value) [4]	viability at 1 µM [7]	LDH (LDH activity, cell death) [7]
COc1cccc2c1C[C@@H]1c3c(cc4c(c3-2)OCO4)CCN1C [D9]	no or little	−	suppressed	suppressed	markedly suppressed	6.41	markedly suppressed				
COc1cc(O)c2c(c1)C[C@@H]1c3c(cc4c(c3-2)OCO4)CCN1C [D10]	no or little	−	suppressed	suppressed	markedly suppressed	6.12	markedly suppressed				
CN1CCc2cccc3c2[C@H]1Cc1ccc(OCCCc2ccccc2)c(O)c1-3.Cl [D37]	no or little	−				6.73		++	particularly high	80%	0.85
CN1CCc2cccc3c2[C@H]1Cc1ccc(OCCCO)c(O)c1-3.Cl [D38]	no or little	±						++	particularly high	81%	1.66
CN1CCc2cccc3c2[C@H]1Cc1ccc(OCCCCl)c(O)c1-3.Cl [D39]	no or little	−				6.59		+		80%	1.15
CCCOc1ccc2c(c1O)-c1cccc3c1[C@@H](C2)N(C)CC3.Cl [D40]	no or little	−				7.26		+	particularly high	84%	1.15
CCCCCCCCCOc1ccc2c(c1O)-c1cccc3c1[C@@H](C2)N(C)CC3.Cl [D41]	no or little	−				6.19					
CN1CCc2cccc3c2[C@H]1Cc1ccc(OCCCC(F)(F)F)c(O)c1-3.Cl [D42]	no or little	−				6.78		+	particularly high	82%	1.55
COc1ccc2c(c1O)-c1c(OC)c(OC)cc3c1[C@@H](C2)N(C)CC3 [D43]	no or little	−				6.65		−		49%	6.52
CN1CCc2cccc3c2[C@H]1Cc1ccc(-c2ccccc2)c(O)c1-3 [D45]	no or little	±				7.02		++	particularly high	77%	0.43
CN1CCc2cccc3c2[C@H]1Cc1ccc(OCc2ccccc2)c(O)c1-3 [D47]	no or little	−				6.91		++	particularly high	71%	0.39
CN1CCc2cccc3c2[C@H]1Cc1ccc(OCCc2ccccc2)c(O)c1-3 [D48]	no or little	−				6.89		++	particularly high	78%	0.44
CN1CCc2cccc3c2[C@H]1Cc1ccc(OCCCCc2ccccc2)c(O)c1-3 [D50]	no or little	−				6.68		++		60%	0.43
CN1CCc2cccc3c2[C@H]1Cc1ccc(OCCC(c2ccccc2)c2ccccc2)c(O)c1-3 [D54]	no or little	−						−		68%	0.43
CCOc1ccc2c(c1O)-c1cccc3c1[C@@H](C2)N(C)CC3 [D55]	no or little	−				8.40		+	particularly high	78%	0.44
